According to US20240327459A1, “PEPTIDE FRAGMENTS FOR TREATMENT OF DIABETES” (Follicum AB, priority 2018, published 2024):
“Also recorded” adds a separate entry of the source.

Experiments:
[1] = tested on: INS-1 β-cells; assay: Insulin secretion from INS-1 cells, insulin ELISA (Examples 8-11, 20); assay type: cell-based, rat
Method: Materials and methods: Rat INS-1 β-cells (passages 60-70) were cultured at 37° C. and 5% CO2 in cRPMI media (RPMI 1640 supplemented with 10% fetal bovine serum, 50 IU/mL penicillin, 50 mg/L streptomycin, 10 mM HEPES, 2 mM L-glutamine, 1 mM sodium pyruvate, and 50 μM beta-mercaptoethanol) unless otherwise stated. INS-1 cells were seeded in 96-well plates (2×10^3 cells/well) in cRPMI medium and following overnight incubation, the cells were washed in PBS before pre-incubation for 120 min at 37° C. in Krebs-Ringer bicarbonate buffer, pH 7.4, supplemented with 10 mM HEPES, 0.1% bovine serum albumin and 2.8 mM glucose. Following pre-incubation, the buffer was exchanged with fresh Krebs-Ringer buffer as described above and supplemented with specific glucose concentrations and peptides for the individual experiments as described below. Immediately after 60 minutes incubation at 37° C., an aliquot of the buffer was removed and frozen for subsequent insulin ELIZA assay.
Insulin release from INS-1 cells were measured following exposure to increasing concentrations of FOL-014 and compared with the stimulatory effect of GLP-1 and untreated control during high glucose concentration (16.7 mM). […] At 6 nM or higher, FOL-014 triggered insulin release within the same range as 100 nM GLP-1. At concentrations ranging from 0.6-60 nM, insulin secretion increased in a linear fashion in relation to increasing FOL-014 concentrations.
Insulin release from INS-1 cells was measured following exposure to 60 nM FOL-014 at increasing concentrations of glucose. In untreated control samples, elevated glucose concentrations increased the insulin secretion at 11.1 mM glucose or higher. […] (FIG. 6).
Insulin secretion from INS-1 cells was measured following exposure to FOL-005, FOL-014, GLP-1 or combinations of those, expressed as percentage of untreated control. […] The experiments were performed in the presence of 16.7 mM glucose (FIG. 7).
Novel peptide analogues, derived from either FOL-005 or FOL-014 were tested concerning their ability to induce insulin secretion in two separate INS-1 cell lines in the presence of 16.7 mM glucose. FOL-005, FOL-014 and GLP-1 as well as a high glucose (16.7 mM) and a low glucose (2.8 mM) control (not shown) was included in each experiment and the peptide concentration was 100 nM. In order to correct for the variance between experiments, all values were normalized to, and expressed as percentage of the average value of the high glucose control in the individual experiments. The analogues were subsequently ranked according to performance (FIGS. 11A and 11B).
Insulin secretion from INS-1 cells was measured following exposure to FOL-056, GLP-1 or a combination of those, expressed as percentage of untreated control. […] The experiments were performed in the presence of 16.7 mM glucose (FIG. 15).

[2] = tested on: INS-1E cells; assay: Insulin secretion from INS-1E cells (Example 18); assay type: cell-based, rat; settings: 100 nM peptide, high (16.7 mM) glucose buffer, 60 min, vs un-supplemented buffer
Method: To investigate the stimulatory effect of FOL-056 on insulin secretion we used INS-1E cells. The cells were seeded overnight and washed with PBS before pre-incubation for 60 min at 37° C. in Krebs-Ringer bicarbonate buffer (KRB), pH 7.4, supplemented with 10 mM HEPES, 0.1% bovine serum albumin. Following pre-incubation, the buffer was discarded and the INS-1E cells were incubated in fresh KRB buffer supplemented with 10 mM HEPES, 0.1% bovine serum albumin with or without peptide FOL-056. For comparative purposes cells treated with FOL-014 was included. Following 60 min incubation at 37.C, the buffer was removed and frozen for subsequent insulin assay.

[3] = tested on: human pancreatic β-cell line 1.2B4; assay: Insulin secretion from 1.2B4 human β-cells; assay type: cell-based; settings: 100 nM peptide, 16.7 mM glucose, 60 minutes
Method: In order to test the effect of FOL-014 and FOL-056 in human cells, the human pancreatic β-cell line 1.2B4 were cultured at 37° C. and 5% CO2 in RPMI 1640 supplemented with 10% fetal bovine serum, 50 IU/mL penicillin, 50 mg/L streptomycin, 1 mM L-glutamine. 1.2B4 cells were seeded in 24-well plates in RPMI medium and following overnight incubation, the medium was removed before pre-incubation for 40 min at 37° C. in Krebs-Ringer bicarbonate buffer, pH 7.4, supplemented with 10 mM HEPES, 0.1% bovine serum albumin and 1.0 mM glucose. Following pre-incubation, the buffer was exchanged with fresh Krebs-Ringer buffer as described above and supplemented with specific glucose concentrations, 1 mM or 16.7 mM. FOL-014, FOL-056 or Liraglutide was added at a concentration of 100 nM in the presence of 16.7 mM glucose. Immediately after 60 minutes incubation at 37° C., an aliquot of the buffer was removed and frozen for subsequent insulin ELISA assay. (FIG. 18)

## KPLAEIDSIELSYGIK (MISC_FEATURE - peptide, FOL-014)
[1]; 60 nM peptide, glucose 5.5 mM or higher, vs untreated control cells
  insulin secretion at increasing glucose concentrations: increased significantly in a glucose dependent fashion already from 5.5 mM glucose; also recorded: significantly higher
[1]; 16.7 mM glucose
  concentration range in which insulin secretion increased in a linear fashion: 0.6 to 60 nM
  concentration triggering insulin release within the same range as 100 nM GLP-1: ≥ 6 nM
[1]; all concentrations tested, 16.7 mM glucose, vs untreated control
  insulin release: elicited significantly higher insulin release as compared with the untreated control; also recorded: significant increase in insulin secretion for all concentrations tested
[1]; concentrations ≥600 nM, 16.7 mM glucose
  insulin secretion: did not increase the insulin secretion; also recorded: less pronounced effect on insulin secretion
[2]
  insulin secretion: resulted in a significant increase in insulin secretion
[3]
  insulin secretion: increase the insulin secretion capacity in 1.2B4 human β-cells; also recorded: significantly increased the insulin secretion as compared with cells treated with an un-supplemented high glucose buffer
